Experimental findings from patent publication US10457707B2, “Substituted urea depsipeptide analogs as activators of the CLPP endopeptidase” (priority 2015, dated 2019) are described below.

Values after ≈ are worked out from the molar mass of the structure shown. Read-outs that look alike come from different tables or passages of the source. *1 amine or outer side, *2 acyl side, *3 side chain or, on linkers, in order; H or OH if unused. Where a SMILES comes first, the peptide text is derived from it. Bridges are numbered along the chain shown (N, C = ends). [ ]: non-standard residue; d: D form. The star is where a group is joined. Phe(3,5-F2) = N[C@@H](Cc1cc(F)cc(F)c1)C(=O)O; NMepT = CN[C@H](C(=O)O)[C@@H](C)OP(=O)(O)O; Pro(4S-Me) = C[C@@H]1CN[C@H](C(=O)O)C1; Pro(4R-Me) = C[C@H]1CN[C@H](C(=O)O)C1; NH(4-Et-phenyl) = CCc1ccc(N*)cc1; NMeT = CN[C@H](C(=O)O)[C@@H](C)O; NH(4-Me-phenyl) = Cc1ccc(N*)cc1; aThr = C[C@H](O)[C@H](N)C(=O)O; CO = O=C([*:1])[*:2]

Format in all cases: cell-based
Data set [1] is described as follows: Cytotoxicity assay (CellTiter-Glo cell viability, 72 hours). To be noted: African green monkey. In outline: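 Vero cells, 5000/well, grown overnight at 37° C, 5% CO2 in DMEM with 10% FBS, then exposed to serial compound dilutions or DMSO for 72 hours. Viability read by CellTiter-Glo luminescence. IC50 from duplicate wells, reported as range over two independent experiments.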

For data set [2], the system named is Streptococcus pyogenes, ATCC 700294. In words: Minimal inhibitory concentration assay (microbroth dilution). In outline: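 CLSI broth microdilution: two-fold serial compound dilutions in appropriate broth, inoculated and incubated aerobically overnight at 37° C. MIC read visually as lowest concentration preventing bacterial growth.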
A general note: Dilution methods test growth across graded concentrations, often in twofold steps.

Data set [3] has as its system Staphylococcus aureus, ATCC 29213. The data set is described as above. To be noted: ATCC29213, read-out: Minimal Inhibitory Concentrations S. aureus ATCC 29213. Put shortly:
(§1)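 Broth microdilution per CLSI M7-A7: two-fold serial dilutions of compound in broth (top final concentration 200 μM) were inoculated with ~10^5 cfu/mL bacteria and incubated aerobically overnight at 37 °C. MIC was read visually as the lowest concentration preventing growth.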

Data set [4] has as its system Staphylococcus aureus, NRS70. The data set is described as above. Put shortly:
as §1

The subject of data set [5] is Bacillus subtilis, ATCC 23857. Described as above. In outline:
as §1

[6] abbreviates: Streptococcus pyogenes, ATCC700294; read-out: Minimal Inhibitory Concentrations S. pyogenes ATCC 700294.
[7] abbreviates: Staphylococcus aureus, NRS70; read-out: Minimal Inhibitory Concentrations S. aureus NRS70.
Where [8] appears, read: Bacillus subtilis, ATCC23857; read-out: Minimal Inhibitory Concentrations B. subtilis ATCC 23857.

In general, IC50 refers to the midpoint of a concentration-inhibition curve. On to `CCc1ccc(NC(=O)N[C@@H](Cc2cc(F)cc(F)c2)C(=O)N[C@@H]2C(=O)N3CCC[C@H]3C(=O)N(C)[C@@H]([C@@H](C)O)C(=O)N[C@@H](C)C(=O)N3C[C@H](C)C[C@H]3C(=O)O[C@H]2C)cc1` [Compound 42, (S)-3-(3,5-difluorophenyl)-2-(3-(4-ethylphenyl)ureido)-N-((2R,6S,9S,11aS,17S,18S,20aS)-9-((R)-1-hydroxyethyl)-2,6,10,18-tetramethyl-5,8,11,16,20-pentaoxohexadecahydro-1H,5H,16H-dipyrrolo[2,1-c:2′,1′-l][1]oxa[4,7,10,13]tetraazacyclohexadecin-17-yl)propanamide] ({NH(4-Et-phenyl)-CO}-[Phe(3,5-F2)][aThr]P[NMeT]A[Pro(4R-Me)]; ester 2-C), for which, in data set [1], the IC50 at 72 h is 24.9 ± 2.6 µM. Also, the MIC stood at 0.05 µM (≈ 0.0413 µg/mL) in data set [2] (setting [6]), 0.05 µM (≈ 0.0413 µg/mL) in data set [3], 0.02 µM (≈ 0.0165 µg/mL) in data set [4] (setting [7]) and 0.01 µM (≈ 0.00826 µg/mL) in data set [5] (setting [8]).

Consider `Cc1ccc(NC(=O)N[C@@H](Cc2cc(F)cc(F)c2)C(=O)N[C@@H]2C(=O)N3CCC[C@H]3C(=O)N(C)[C@@H]([C@@H](C)OP(=O)(O)O)C(=O)N[C@@H](C)C(=O)N3C[C@@H](C)C[C@H]3C(=O)O[C@H]2C)cc1` [Compound 188, (R)-1-((2S,6S,9S,11aS,17S,18S,20aS)-17-((S)-3-(3,5-difluorophenyl)-2-(3-(p-tolyl)ureido)propanamido)-2,6,10,18-tetramethyl-5,8,11,16,20-pentaoxohexadecahydro-1H,5H,16H-dipyrrolo[2,1-c:2′,1′-l][1]oxa[4,7,10,13]tetraazacyclohexadecin-9-yl)ethyl dihydrogen phosphate] ({NH(4-Me-phenyl)-CO}-[Phe(3,5-F2)][aThr]P[NMepT]A[Pro(4S-Me)]; ester 2-C), for which the 50% inhibitory concentration (IC50) at 72 h in data set [1] (Vero cells, 72 hours, growth inhibition, read-out: Cytotoxicity IC50) is greater than 100 µM. The MIC is 50 µM in data set [2] (Streptococcus pyogenes, ATCC700294, read-out: Minimal Inhibitory Concentrations S. pyogenes ATCC 700294); 25 µM in data set [3]; 25 µM in data set [4] (Staphylococcus aureus, NRS70, read-out: Minimal Inhibitory Concentrations S. aureus NRS70); 13 µM in data set [5] (Bacillus subtilis, ATCC23857, read-out: Minimal Inhibitory Concentrations B. subtilis ATCC 23857).

As to `C[C@@H]1C[C@H]2C(=O)OC[C@H](NC(=O)[C@H](Cc3ccccc3)NC(=O)Nc3ccc4c(c3)OCO4)C(=O)N3CCC[C@H]3C(=O)N3CCCC[C@H]3C(=O)N[C@@H](C)C(=O)N2C1` [Compound 194, (S)-2-(3-(benzo[d][1,3]dioxol-5-yl)ureido)-N-((2R,6S,8aS,14aS,20S,23aS)-2,6-dimethyl-5,8,14,19,23-pentaoxooctadecahydro-1H,5H,14H,19H-pyrido[2,1-i]dipyrrolo[2,1-c:2′,1′-l][1]oxa[4,7,10,13]tetraazacyclohexadecin-20-yl)-3-phenylpropanamide], in data set [1], the concentration for half-maximal inhibition (IC50) at 72 h was greater than 100 µM. Also, the MIC was less than 0.2 µM in data set [2] (setting [6]), 1.56 µM (≈ 1.23 µg/mL) in data set [3], 0.39 µM (≈ 0.307 µg/mL) in data set [4] (setting [7]) and 0.39 µM (≈ 0.307 µg/mL) in data set [5] (setting [8]).

The molecule `C[C@@H]1C[C@H]2C(=O)OC[C@H](NC(=O)[C@H](Cc3cc(F)cc(F)c3)NC(=O)Nc3ccc4c(c3)OCO4)C(=O)N3CCC[C@H]3C(=O)N3CCCC[C@H]3C(=O)N[C@@H](C)C(=O)N2C1` [Compound 195, (S)-2-(3-(benzo[d][1,3]dioxol-5-yl)ureido)-3-(3,5-difluorophenyl)-N-((2R,6S,8aS,14aS,20S,23aS)-2,6-dimethyl-5,8,14,19,23-pentaoxooctadecahydro-1H,5H,14H,19H-pyrido[2,1-i]dipyrrolo[2,1-c:2′,1′-l][1]oxa[4,7,10,13]tetraazacyclohexadecin-20-yl)propanamide] gave an IC50 at 72 h in data set [1] of 84.1 ± 8.3 µM. The MIC in data set [2] (setting [6]) is 0.3 µM (≈ 0.247 µg/mL); in data set [3] it was 0.6 µM (≈ 0.494 µg/mL); in data set [4] (setting [7]), 0.6 µM (≈ 0.494 µg/mL); in data set [5] (setting [8]), 0.3 µM (≈ 0.247 µg/mL).
